{"source": "patent US20110112053A1", "about": "“PHARMACOLOGICAL TARGETING OF VASCULAR MALFORMATIONS” (University of Utah Research Foundation, priority 2008, published 2011)", "key": {"[1]": {"target": "geranylgeranyltransferase I (GGTase I) (Homo sapiens, UniProt P53609)", "settings": "cited from earlier work"}, "CCM2-depleted HMVECs [2]": {"tested_on": "CCM2-depleted HMVECs", "test": "Phalloidin staining for actin stress fibers", "assay_type": "cell-based, human", "protocol": "Immunofluorescent Cell Staining. Glass chamber slides were coated with human fibronectin (Biomedical Technologies, Inc.), and transfected cells were seeded at 50,000 cells per well. For the RhoA and ROCK experiment, cells were treated four days after seeding with 40 μg/mL of cell-permeable C3 transferase (Cytoskeleton, Inc.) or 20 μM Y-27632 for 4 hours. For the simvastatin experiment, cells were treated three days after seeding with 40 μM simvastatin (Calbiochem) or equivalent amounts of ethanol in growth media for 24 hours. Cells were fixed in 4% formaldehyde and incubated with an antibody against β-catenin (BD Biosciences). Fluorescent secondary antibody (Molecular Probes) was used to visualize β-catenin staining Actin cytoskeleton was visualized using fluorescently-conjugated phalloidin (Molecular Probes). Images were obtained with an Olympus FV300 confocal microscope."}, "JNK": {"tested_on": "JNK", "test": "Immunoblot for phosphorylated and total JNK", "assay_type": "cell-based, human", "settings": "10 μM Y-27632 for 30 min prior to cell lysis", "protocol": "MAPK Profiling. siRNA transfected cells were lysed in RIPA buffer (50 mM Tris pH 7.4, 150 mM NaCl, 1% NP-40) supplemented with protease and phosphatase inhibitors. Lysates were then analyzed by western blotting. Antibodies to phospho-JNK and total JNK were from Santa Cruz Biotechnology. Antibodies to phospho-ERK, phospho-p38, phospho-MKK4, phospho-MKK7, total ERK, total p38, total MKK4, and total MKK7 were from Cell Signaling Technology. The effect of ROCK inhibitor on JNK was tested by treating cells with 10 μM Y-27632 for 30 min prior to cell lysis. The effect of simvastatin on JNK was determined by treating cells with 10 μM simvastatin for 24 h prior to cell lysis."}, "mice": {"tested_on": "mice", "settings": "mouse, in vivo"}, "CCM2-depleted HMVECs [3]": {"tested_on": "CCM2-depleted HMVECs", "test": "Transendothelial electrical resistance (barrier function)", "assay_type": "cell-based, human", "settings": "C3 transferase 1 μg ml^−1", "protocol": "Transendothelial Resistance. An electrode culture array (Applied Biophysics) was coated with human fibronectin and transfected cells were seeded at 50,000 cells per well. Three days after seeding, cells were serum-starved in endothelial basal medium-2 with 0.2% BSA overnight. Transendothelial resistance was measured with an electric cell-substrate impedance sensing system (Applied Biophysics). Cell-permeable C3 transferase (1 μg ml^−1) was added to inhibit RHOA. For basal resistance, 40 wells each were measured for Rho inhibition experiments, six control wells each and ten C3 transferase wells each were measured."}}}
{"compound": "CC(C)C[C@H](NC(=O)c1ccc(NCc2c[nH]cn2)cc1-c1cccc2ccccc12)C(=O)O.O=C(O)C(F)(F)F", "note": "[GGTI-2133, N-[[4-(Imidazol-4-yl)methylamino]-2-(1-naphthyl)benzoyl]leucine trifluoroacetate salt]", "values": [{"measurement": "selectivity for GGTase I over farnesyltransferase", "setting": "[1]", "result": 140, "unit": "fold"}]}
{"compound": "C[C@@H](N)[C@H]1CC[C@H](C(=O)Nc2ccncc2)CC1", "note": "[Y-27632, (R)-(+)-trans-N-(4-Pyridyl)-4-(1-aminoethyl)-cyclohexanecarboxamide]", "values": [{"measurement": "actin stress fiber response", "setting": "CCM2-depleted HMVECs [2]; 20 μM Y-27632, 4 hours", "result": "blocked the stress fiber response"}, {"measurement": "activation (phosphorylation) of JNK", "setting": "JNK", "result": "decreased the activation of JNK"}, {"measurement": "tolerability in mice", "setting": "mice", "result": "do not tolerate"}]}
{"compound": "C3 transferase", "values": [{"measurement": "actin stress fiber response", "setting": "CCM2-depleted HMVECs [2]; 40 μg/mL cell-permeable C3 transferase, 4 hours", "result": "blocked the stress fiber response"}, {"measurement": "barrier function (transendothelial resistance)", "setting": "CCM2-depleted HMVECs [3]", "result": "significantly rescue barrier function"}]}
